{"source": "patent US20180161314A1", "about": "“Methods for Treating Hyperuricemia and Related Diseases” (Ardea Biosciences, Inc., priority 2010, published 2018)", "test_system": "healthy adult subjects", "assay": "Drug 1 / febuxostat cross-over interaction study in healthy adult subjects (Examples 10-12)", "format": "in vivo, human", "conditions": "for % serum uric acid change, Mean: drug 1 200 mg qd, febuxostat 40 mg qd", "source_text": "Study Objectives • To compare the multiple-dose pharmacokinetics of febuxostat in the absence versus presence of drug 1 co-administration. • To compare the multiple-dose pharmacokinetics of drug 1 in the absence versus presence of febuxostat co-administration. • To measure the effects of drug 1 and febuxostat, both alone and in combination, on serum uric acid concentrations and amounts of urate excreted into urine. • To evaluate the safety and tolerability of multiple-doses of drug 1 and febuxostat, both alone or in combination.\nThe study is a two or three-panel, placebo-controlled (for drug 1), double-blinded (for drug 1 and matched placebo), randomized, cross-over study with up to 54 healthy adult subjects. Each panel consisting of 18 subjects is sequentially enrolled, starting with Panel 1 (200 mg once daily dose of drug 1 or placebo), followed by Panel 2 (400 mg once daily dose of drug 1 or placebo), and followed by optional Panel 3 (100 mg to 600 mg once daily dose of drug 1 or placebo). The placebo control is included in this study to better assess safety and tolerability and the serum urate lowering effect of drug 1 in combination with febuxostat. Serum urate levels may be influenced by frequent blood draws and meal contents; therefore, the true effect on serum urate levels can be determined by correcting for placebo (subtract serum urate effect in placebo subjects from serum urate effect in active subjects).\nSubjects in each panel are randomly assigned to one of two treatment sequences (Sequence A or B) after all Baseline (Day −1) procedures have been completed. Each treatment sequence within a panel consists of 9 subjects randomly assigned to receive drug 1 (6 of 9 subjects) or matching placebo (3 of 9 subjects) in a double-blinded fashion. For each treatment sequence, single-agent drug treatment is administered on Days 1 to 7 (either open-label febuxostat or double-blinded drug 1 or matched placebo by random assignment), followed by combination treatment on Days 8 to 14, and completing with the alternative single-agent drug treatment on Days 15 to 21, as follows (Panel 1 shown in FIG. 2):\nSequence A: Days 1-7: Febuxostat, 40 mg (once daily) • Days 8 to 14: drug 1, 200 mg or placebo in combination with febuxostat (once daily) • Days 15-21: drug 1, 200 mg, or placebo (once daily) Sequence B: Days 1-7: drug 1, 200 mg, or placebo (once daily) • Days 8 to 14: drug 1, 200 mg or placebo in combination with febuxostat (once daily) • Days 15-21: Febuxostat, 40 mg (once daily) […]\nSerial blood samples for PK and PD assessments are collected up to 24 hours after dosing on Days 7, 14, and 21. Urine (total catch) for assays of drug 1, creatinine, and uric acid are collected starting on Day −1 (pre-treatment baseline) and after dosing on Days 7, 14, and 21. Final safety assessments are completed when subjects return to the clinic at 7±1 days after discharge from the clinic on Day 22 (Follow-Up visit on Day 29). The total volume of blood collected from each subject is approximately 518 mL.\nScreening procedures to determine subject eligibility are performed 28 days before the first dose of study drug (Day 1). A total of up to 54 subjects enrolled in up to 3 panels consisting of 2 sequences each, with 9 subjects per sequence (18 subjects per panel). Subjects withdrawing after dosing are not replaced.\nSubjects in Panel 1 receive a 200 mg dose of drug 1 or placebo once daily for 14 days and a 40 mg dose of febuxostat once daily for 14 days. Subjects in Panel 2 receive a 400 mg dose of drug 1 or placebo once daily for 14 days and a 40 mg dose of febuxostat once daily for 14 days. Subjects in Panel 3 receive a 100-600 mg dose of drug 1 or placebo once daily for 14 days and a 40 mg dose of febuxostat once daily for 14 days.\nSubjects in Sequence A begin dosing on Day 1 with febuxostat and take their first dose of drug 1 or placebo on Day 8. […]", "key": {"[1]": {"conditions": "Week 1, Drug 1 200 mg alone, febuxostat 40 mg alone"}, "[2]": {"conditions": "Week 3, Drug 1 200 mg alone, febuxostat 40 mg alone"}}, "data": [{"smiles": "O=C(O)CSc1nnc(Br)n1-c1ccc(C2CC2)c2ccccc12", "note": "[Drug 1, Sodium 2-(5-bromo-4-(4-cyclopropylnaphthalen-1-yl)-4H-1,2,4-triazol-3-ylthio)acetate]", "values": [{"measurement": "serum uric acid change from baseline, daily", "setting": "Day 1, Drug 1 200 mg, FBX 40 mg", "value": "−7.4", "unit": "%"}, {"measurement": "serum uric acid change from baseline, daily", "setting": "Day 1, Drug 1 400 mg", "value": "−5.5", "unit": "%"}, {"measurement": "% serum uric acid change, Mean", "setting": "Day 1", "value": "−14.8", "unit": "%"}, {"measurement": "serum uric acid change from baseline, daily", "setting": "Day 2, Drug 1 200 mg, FBX 40 mg", "value": "−22.3", "unit": "%"}, {"measurement": "serum uric acid change from baseline, daily", "setting": "Day 2, Drug 1 400 mg", "value": "−28.9", "unit": "%"}, {"measurement": "% serum uric acid change, Mean", "setting": "Day 2", "value": "−26.3", "unit": "%"}, {"measurement": "serum uric acid change from baseline, daily", "setting": "Day 3, Drug 1 200 mg, FBX 40 mg", "value": "−32.4", "unit": "%"}, {"measurement": "serum uric acid change from baseline, daily", "setting": "Day 3, Drug 1 400 mg", "value": "−33.3", "unit": "%"}, {"measurement": "% serum uric acid change, Mean", "setting": "Day 3", "value": "−34.7", "unit": "%"}, {"measurement": "serum uric acid change from baseline, daily", "setting": "Day 4, Drug 1 200 mg, FBX 40 mg", "value": "−37.7", "unit": "%"}, {"measurement": "serum uric acid change from baseline, daily", "setting": "Day 4, Drug 1 400 mg", "value": "−36.2", "unit": "%"}, {"measurement": "% serum uric acid change, Mean", "setting": "Day 4", "value": "−31.6", "unit": "%"}, {"measurement": "serum uric acid change from baseline, daily", "setting": "Day 5, Drug 1 200 mg, FBX 40 mg", "value": "−36", "unit": "%"}, {"measurement": "serum uric acid change from baseline, daily", "setting": "Day 5, Drug 1 400 mg", "value": "−37.3", "unit": "%"}, {"measurement": "% serum uric acid change, Mean", "setting": "Day 5", "value": "−31.3", "unit": "%"}, {"measurement": "serum uric acid change from baseline, daily", "setting": "Day 6, Drug 1 200 mg, FBX 40 mg", "value": "−39.1", "unit": "%"}, {"measurement": "serum uric acid change from baseline, daily", "setting": "Day 6, Drug 1 400 mg", "value": "−45.6", "unit": "%"}, {"measurement": "% serum uric acid change, Mean", "setting": "Day 6", "value": "−36.2", "unit": "%"}, {"measurement": "serum uric acid change from baseline, daily", "setting": "Day 7, Drug 1 200 mg, FBX 40 mg", "value": "−41.2", "unit": "%"}, {"measurement": "serum uric acid change from baseline, daily", "setting": "Day 7, Drug 1 400 mg", "value": "−48.8", "unit": "%"}, {"measurement": "% serum uric acid change, Mean", "setting": "Day 7", "value": "−40.7", "unit": "%"}, {"measurement": "serum uric acid change from baseline, daily", "setting": "Day 8, Drug 1 200 mg, FBX 40 mg, alone or combined as labelled", "value": "−38.9", "unit": "%"}, {"measurement": "serum uric acid change from baseline, daily", "setting": "Day 8, Drug 1 400 mg, alone or + FBX 40 mg as labelled", "value": "−42.5", "unit": "%"}, {"measurement": "% serum uric acid change, Mean", "setting": "Day 8", "value": "−37.6", "unit": "%"}, {"measurement": "serum uric acid change from baseline, daily", "setting": "Day 15, Drug 1 200 mg, FBX 40 mg, alone or combined as labelled", "value": "−54.8", "unit": "%"}, {"measurement": "serum uric acid change from baseline, daily", "setting": "Day 15, Drug 1 400 mg, alone or + FBX 40 mg as labelled", "value": "−68.1", "unit": "%"}, {"measurement": "serum uric acid change from baseline, daily", "setting": "Day 16, Drug 1 200 mg alone (week 3), FBX 40 mg alone", "value": "−42.5", "unit": "%"}, {"measurement": "serum uric acid change from baseline, daily", "setting": "Day 16, Drug 1 400 mg alone (week 3)", "value": "−53.4", "unit": "%"}, {"measurement": "serum uric acid change from baseline, daily", "setting": "Day 17, Drug 1 200 mg alone (week 3), FBX 40 mg alone", "value": "−37.5", "unit": "%"}, {"measurement": "serum uric acid change from baseline, daily", "setting": "Day 17, Drug 1 400 mg alone (week 3)", "value": "−44.8", "unit": "%"}, {"measurement": "serum uric acid change from baseline, daily", "setting": "Day 18, Drug 1 200 mg alone (week 3), FBX 40 mg alone", "value": "−32.8", "unit": "%"}, {"measurement": "serum uric acid change from baseline, daily", "setting": "Day 18, Drug 1 400 mg alone (week 3)", "value": "−40.7", "unit": "%"}, {"measurement": "serum uric acid change from baseline, daily", "setting": "Day 19, Drug 1 200 mg alone (week 3), FBX 40 mg alone", "value": "−25.9", "unit": "%"}, {"measurement": "serum uric acid change from baseline, daily", "setting": "Day 19, Drug 1 400 mg alone (week 3)", "value": "−33.8", "unit": "%"}, {"measurement": "serum uric acid change from baseline, daily", "setting": "Day 20, Drug 1 200 mg alone (week 3), FBX 40 mg alone", "value": "−33", "unit": "%"}, {"measurement": "serum uric acid change from baseline, daily", "setting": "Day 20, Drug 1 400 mg alone (week 3)", "value": "−40", "unit": "%"}, {"measurement": "serum uric acid change from baseline, daily", "setting": "Day 21, Drug 1 200 mg alone (week 3), FBX 40 mg alone", "value": "−32.4", "unit": "%"}, {"measurement": "serum uric acid change from baseline, daily", "setting": "Day 21, Drug 1 400 mg alone (week 3)", "value": "−46.4", "unit": "%"}, {"measurement": "serum uric acid change from baseline, daily", "setting": "Day 22, Drug 1 200 mg alone (week 3), FBX 40 mg alone", "value": "−32.8", "unit": "%"}, {"measurement": "serum uric acid change from baseline, daily", "setting": "Day 22, Drug 1 400 mg alone (week 3)", "value": "−41.3", "unit": "%"}, {"measurement": "Absolute sUA reduction from baseline, Intraday peak", "setting": "[1]", "value": -3.1, "unit": "mg/dL"}, {"measurement": "Absolute sUA reduction from baseline, Trough", "setting": "[1]", "value": -2.4, "unit": "mg/dL"}, {"measurement": "Percent sUA reduction from baseline, Intraday peak", "setting": "[1]", "value": "−50.4", "unit": "%"}, {"measurement": "Percent sUA reduction from baseline, Trough", "setting": "[1]", "value": "−39.7", "unit": "%"}, {"measurement": "Absolute sUA reduction from baseline, Intraday peak", "setting": "Week 1, Drug 1 400 mg alone", "value": -4.2, "unit": "mg/dL"}, {"measurement": "Absolute sUA reduction from baseline, Trough", "setting": "Week 1, Drug 1 400 mg alone", "value": -3.4, "unit": "mg/dL"}, {"measurement": "Percent sUA reduction from baseline, Intraday peak", "setting": "Week 1, Drug 1 400 mg alone", "value": "−60.7", "unit": "%"}, {"measurement": "Percent sUA reduction from baseline, Trough", "setting": "Week 1, Drug 1 400 mg alone", "value": "−48.5", "unit": "%"}, {"measurement": "Absolute sUA reduction from baseline, Intraday peak", "setting": "[2]", "value": -2.8, "unit": "mg/dL"}, {"measurement": "Absolute sUA reduction from baseline, Trough", "setting": "[2]", "value": -2.0, "unit": "mg/dL"}, {"measurement": "Percent sUA reduction from baseline, Intraday peak", "setting": "[2]", "value": "−48.5", "unit": "%"}, {"measurement": "Percent sUA reduction from baseline, Trough", "setting": "[2]", "value": "−34.7", "unit": "%"}, {"measurement": "Absolute sUA reduction from baseline, Intraday peak", "setting": "Week 3, Drug 1 400 mg alone", "value": -3.6, "unit": "mg/dL"}, {"measurement": "Absolute sUA reduction from baseline, Trough", "setting": "Week 3, Drug 1 400 mg alone", "value": -2.9, "unit": "mg/dL"}, {"measurement": "Percent sUA reduction from baseline, Intraday peak", "setting": "Week 3, Drug 1 400 mg alone", "value": "−56.9", "unit": "%"}, {"measurement": "Percent sUA reduction from baseline, Trough", "setting": "Week 3, Drug 1 400 mg alone", "value": "−45.5", "unit": "%"}]}]}
